From ChEMBL document CHEMBL5729531, “Neprilysin inhibitors” (2023) come the findings set out here.

The structures appear in SMILES notation.

For this experiment, the target named is Neprilysin/Angiotensin-converting enzyme (Homo sapiens, UniProt P12821+P08473). In words: Enzyme Inhibition Assay: The assays were performed in 384-well white opaque plates at 37° C. using the fluorogenic peptide substrates at a concentration of 10 μM in Assay Buffer (NEP: 50 mM HEPES, pH 7.5, 100 mM NaCl, 0.01% polyethylene glycol sorbitan monolaurate (Tween-20), 10 μM ZnSO4; ACE: 50 mM HEPES, pH 7.5, 100 mM NaCl, 0.01% Tween-20, 1 μM ZnSO4). The respective enzymes were used at …. Format: protein-complex assay.

Description: Enzyme Inhibition Assay: The assays were performed in 384-well white opaque plates at 37° C. using the fluorogenic peptide substrates at a concentration of 10 μM in Assay Buffer (NEP: 50 mM HEPES, pH 7.5, 100 mM NaCl, 0.01% polyethylene glycol sorbitan monolaurate (Tween-20), 10 μM ZnSO4; ACE: 50 mM HEPES, pH 7.5, 100 mM NaCl, 0.01% Tween-20, 1 μM ZnSO4). […] Test compounds were added to the enzymes and incubated for 30 minute at 37° C. prior to initiating the reaction by the addition of substrate. Reactions were terminated after 20 minutes of incubation at 37° C. by the addition of glacial acetic acid to a final concentration of 3.6% (v/v).

Turning to `O=C(O)C(=O)NC(Cc1ccc(-c2ccccc2)cc1)CC(O)C(=O)O` (stereo unspecified), the Ki was found to be 35.5 nM.
